Experimental data from patent US20240246960A1 (adMare Therapeutics Society, priority 2021, published 2024).
Read-outs that look alike come from different tables or passages of the source.

Key:
[1] = Microsomal stability assay, mouse liver microsomes; details: for microsomal CLint at 0.1 uM: male, CD-1, mouse, liver microsomes, pH 7.4, Microsomal Stability Mouse Clint
[2] = target: T1, DNA-PK (Homo sapiens, UniProt P78527); test: DNA-PK Assay for Biochemical Enzymatic Inhibition (ADP Glo Kinase assay)
T1 construct: purchased Invitrogen PR9107A
Outline: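 Human DNA-PK (25 ng) preincubated 15 min with compounds (ten three-fold dilutions) in HEPES pH 7.5, MgCl2, KCl, calf thymus DNA buffer, then substrate 434.4 μM and ATP 64.4 μM (final) for 60 min at room temperature. ADP-Glo luminescence; percent inhibition fitted by four-parameter regression for IC50.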

[3] = target: T2, pDNA-PK ser2056 induction in HCT116 spheroids (Homo sapiens, UniProt P78527); test: Multicellular tumour spheroid + radiation, pDNA-PK inhibition, HCT116; type: cell-based; details: 20 Gy
T2 construct: endogenous in cells; host or cells: HCT116 multicellular tumour spheroids
Outline: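 EC50 (μM) is concentration halving radiation-induced pDNA-PK ser2056, scored by fluorescent immunostaining of cryosections 2 h after 20 Gy. HCT116 tumour spheroids (~0.5 mm, stirred, 20% O2/5% CO2, 37 °C) exposed to serial dilutions from 10 or 5 μM to 3.5 nM starting 1 h before irradiation.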

[4] = target: T3, pDNA-PK ser2056 induction in FaDU spheroids (Homo sapiens, UniProt P78527); test: Multicellular tumour spheroid + radiation, pDNA-PK inhibition, FaDU; type: cell-based; details: 20 Gy
T3 construct: host or cells: FaDu
Experimental: Multicellular tumour spheroids determination of compound inhibition of pDNA-PK induction following radiation. Tumour spheroids were grown to approximately 0.5 mm in diameter and irradiated with 20 Gy in combination with inhibitor test compounds to determine their potency. Inhibitor concentration for 50% reduction in pDNA-PK induction (IC50) was determined via immunohistochemical staining in spheroid cryosections taken 2 hours following radiation. For cell survival endpoint 8 Gy radiation was used and 3 hours following radiation spheroids were dissociated, counted and plated for colony forming endpoint.
Spheroid+radiation pDNA-PK. Radiation: 20 Gy. Drug: serial dilution 5 or 10 μM down to 3.5 nM (11 wells). Spheroids: 3-6 spheroids per well (300-500 μm diameter). 20% O2 and 5% CO2. 96 well plate format. Endpoint: fluorescent immunostain pDNA-PK ser2056 and image on microscope. Analysis: determine EC50 concentrations that decreases pDNA-PK induction […] after irradiation.
Multicellular tumour spheroids were used to determine potency of test compounds in a 3D tissue environment using inhibition of pDNA-PK induction following radiation or cell survival as the endpoint. For the pDNA-PK endpoint HCT116 or FaDU tumour spheroids were grown to approximately 0.5 mm in diameter and irradiated with 20 Gy in combination with inhibitor test compounds to determine their potency. Experiments were carried out in 96 well plates containing 0.7 mls of MEM media containing 10% FBS and 10 mM glucose under 20% O2 & 5% CO2 at 37° C. Following dilution of compounds 1:1000 from DMSO stocks, compounds were serially diluted from 10 μM down to 3.5 nM and 5-10 spheroids added. 96 well plates were constantly stirred to avoid spheroids settling during the course of the experiment. The inhibitor concentration for 50% reduction in pDNA-PK induction (EC50) was determined via immunohistochemical staining in spheroid cryosections taken 2 hours following radiation using anti-pDNA-PK (ser 2056) and fixed immediately in formalin following sectioning. For cell survival endpoint 8 Gy radiation was used and, 3 hours following radiation, spheroids were dissociated, counted and plated for colony forming endpoint. Data presented in the table compound potency as EC50 [μM].

[5] = target: T4, DNA-PK phosphorylation at Serine 2056 (Homo sapiens, UniProt P78527); test: Cellular Assay for Inhibition of DNA-PK Phosphorylation at Serine 2056 (FaDu cells, neocarzinostatin, sandwich ELISA); type: cell-based
T4 construct: host or cells: FaDu
Outline: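 Readout was pSer2056 and total DNA-PK, measured by sandwich ELISA on protein-normalized lysates. Prior to lysis, compound was applied to FaDu cells for 1 h (0.3% DMSO), followed by 2 h of 1 μg/mL neocarzinostatin. IC50 values were fitted from log concentration versus % inhibition normalized to DMSO and NCS controls.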

[6] = Hepatocyte stability assay, mouse hepatocytes; type: in vitro ADME; details: male, CD-1, mouse, cryopreserved hepatocytes, pH 7.3, Example 11
Experimental: (§1) Cryopreserved mouse hepatocytes were obtained from a pool of 10 or more male CD-1 mice. Cryopreserved human hepatocytes were obtained from a pool of 10 or more donors of mixed gender. Final hepatocyte density was 0.7 million viable cells per mL and test compound concentration was 1 uM with a maximum of 0.01% DMSO. Cryopreserved hepatocytes were thawed, washed, and resuspended in Krebs-Heinslet buffer (pH 7.3). The reaction was initiated by adding the test compound into cell suspension and incubated for 0, […], 1, 1.5, and 2 h, respectively, at 37° C./5% CO2. The reaction was stopped by adding acetonitrile into the incubation mixture. Samples were then mixed, transferred completely to another 96-well plate, and centrifuged. Supernatants were used for HPLC-MS/MS analysis. […] Peak areas corresponding to the test compound were recorded.

[7] = Microsomal stability assay, human liver microsomes; type: in vitro ADME; details: for microsomal CLint at 0.1 uM: both sexes, human, liver microsomes
Experimental: Samples were then mixed and centrifuged. Supernatants were used for HPLC-MS/MS analysis. […] Peak areas corresponding to the test compound were recorded.

[8] = Hepatocyte stability assay, human hepatocytes; type: in vitro ADME; details: both sexes, human, cryopreserved hepatocytes, pH 7.3; Example 11
Experimental: as §1

[9] = 0.1 mg/mL microsomes, 0.1 uM compound
[10] = Example 7, spheroid, cell line HCT115 [sic], 20% O2, read-out: EC50 (pDNA-PK inhibition, immunohistochemical endpoint)
[11] = Example 8, spheroid, read-out: Cell line: HCT116 Immunohistochemical endpoint pDNA-PK inhibition EC50
[12] = Example 9 Study 2, 20% O2, read-out: Spheroid Cell line: HCT116 Immunohistochemical endpoint pDNA-PK inhibition EC50
[13] = Example 8, spheroid, read-out: Cell line: FaDU Immunohistochemical endpoint pDNA-PK inhibition EC50
[14] = Example 9 Study 2, 20% O2, read-out: Spheroid Cell line: FaDU Immunohistochemical endpoint pDNA-PK inhibition EC50

| SMILES | Microsomal Stability (mouse) % rem. 60 min [1] | microsomal CLint at 0.1 uM [1, 9] | IC50 ([2]; Table 1) | EC50 [3, 10] | EC50 [3, 11] | EC50 [3, 12] | EC50 [4, 13] | EC50 [4, 14] | IC50 ([5]; Table 1) | hepatocyte CLint at 1 uM [6] | Microsomal Stability (mouse) % rem. 60 min ([1]; Example 11) | microsomal CLint at 0.1 uM ([1]; Example 11) | IC50 ([2]; Table 2) | Microsomal Stability (human) % rem. 60 min ([7]; Example 11) | microsomal CLint at 0.1 uM ([7]; pH 7.4, Example 11) | IC50 ([5]; Table 2) | hepatocyte CLint at 1 uM [8] | Microsomal Stability (human) % rem. 60 min [7] | microsomal CLint at 0.1 uM ([7]; pH 7.4, 0.1 mg/mL microsomes, 0.1 uM compound) |
| --- | --- | --- | --- | --- | --- | --- | --- | --- | --- | --- | --- | --- | --- | --- | --- | --- | --- | --- | --- |
| c1ccc(N[C@H]2CC[C@@H](Oc3nc(N4CCOCC4)cc4ncccc34)CC2)nc1 [Compound 25, N-((1s,4s)-4-((7-morpholino-1,6-naphthyridin-5-yl)oxy)cyclohexyl)pyridin-2-amine] | F (% remaining = 25-50%) | > 116 µL/min/mg | 0.5 to 1 nM | 1000 to 10000 nM | 1000 to 10000 nM | 1000 to 10000 nM | 1000 to 10000 nM | 1000 to 10000 nM | 100 to 1000 nM |  |  |  |  |  |  |  |  |  |  |
| CS(=O)(=O)Nc1cnc2cc(N3CCOCC3)nc(O[C@H]3CC[C@@H](Nc4ncc(C#N)cn4)CC3)c2c1 [LFA025, N-[5-[4-[(5-Cyanopyrimidin-2-yl)amino]cyclohexoxy]-7-morpholino-1,6-naphthyridin-3-yl]methanesulfonamide] |  |  |  |  |  |  |  |  |  | > 8.2 µL/min/1e6 cells | G (% remaining = 50-75%) | < 116 µL/min/mg | < 0.5 nM | H (% remaining = 75-100%) | < 116 µL/min/mg | < 100 nM | < 8.2 µL/min/1e6 cells |  |  |
| c1cnc2cc(N3CCOCC3)nc(O[C@H]3CC[C@@H](Nc4ccncc4)CC3)c2c1 [Compound 27, N-((1s,4s)-4-((7-morpholino-1,6-naphthyridin-5-yl)oxy)cyclohexyl)pyridin-4-amine] | E (% remaining = 0-25%) | > 116 µL/min/mg | 0.5 to 1 nM | 1000 to 10000 nM | 1000 to 10000 nM | 1000 to 10000 nM | 10 to 500 nM | 10 to 500 nM | 100 to 1000 nM |  |  |  |  |  |  |  |  |  |  |
| CS(=O)(=O)Nc1cnc2cc(N3CCOCC3)nc(O[C@H]3CC[C@@H](Nc4ncccn4)CC3)c2c1 [LFA006, N-[7-Morpholino-5-[4-(pyrimidin-2-ylamino)cyclohexoxy]-1,6-naphthyridin-3-yl]methanesulfonamide] |  |  |  |  |  |  |  |  |  | > 8.2 µL/min/1e6 cells | G (% remaining = 50-75%) | < 116 µL/min/mg | < 0.5 nM | G (% remaining = 50-75%) | < 116 µL/min/mg | < 100 nM |  |  |  |
| FC(F)(F)c1cn([C@H]2CC[C@@H](Oc3nc(N4CCOCC4)cc4ncccc34)CC2)cn1 [Compound 17k, 4-(5-(((1s,4s)-4-(4-(trifluoromethyl)-1H-imidazol-1-yl)cyclohexyl)oxy)-1,6-naphthyridin-7-yl)morpholine] | E (% remaining = 0-25%) | > 116 µL/min/mg | < 0.5 nM | 1000 to 10000 nM | 1000 to 10000 nM | 1000 to 10000 nM | 500 to 1000 nM | 500 to 1000 nM | < 100 nM |  |  |  |  |  |  |  |  |  |  |
| Nc1cnc2cc(N3CCOCC3)nc(O[C@H]3CC[C@@H](n4ccnc4)CC3)c2c1 [Compound 160, 5-(((1s,4s)-4-(1H-imidazol-1-yl)cyclohexyl)oxy)-7-morpholino-1,6-naphthyridin-3-amine] | E (% remaining = 0-25%) | > 116 µL/min/mg | 0.5 to 1 nM | 1000 to 10000 nM | 1000 to 10000 nM | 1000 to 10000 nM | 1000 to 10000 nM | 1000 to 10000 nM | 100 to 1000 nM |  |  |  |  |  |  |  |  |  |  |
| COc1ccc(C(=O)N[C@H]2CC[C@@H](Oc3nc(N4CCOCC4)cc4ncccc34)CC2)cc1 [Compound 112, 4-Methoxy-N-((1s,4s)-4-((7-morpholino-1,6-naphthyridin-5-yl)oxy)cyclohexyl)benzamide] | E (% remaining = 0-25%) | > 116 µL/min/mg | < 0.5 nM | 10 to 500 nM | 10 to 500 nM | 10 to 500 nM | 10 to 500 nM | 10 to 500 nM | 100 to 1000 nM |  |  |  |  |  |  |  |  |  |  |
| CS(=O)(=O)Nc1cnc2cc(N3CCOCC3)nc(O[C@H]3CC[C@@H](Nc4ncc(C(F)(F)F)cn4)CC3)c2c1 [LFA022, N-[7-Morpholino-5-[4-[[5-(trifluoromethyl)pyrimidin-2-yl]amino]cyclohexoxy]-1,6-naphthyridin-3-yl]methanesulfonamide] |  |  |  |  |  |  |  |  |  | > 8.2 µL/min/1e6 cells | G (% remaining = 50-75%) | < 116 µL/min/mg | 0.5 to 1 nM | H (% remaining = 75-100%) | < 116 µL/min/mg | < 100 nM |  |  |  |
| CS(=O)(=O)Nc1cnc2cc(N3CCOCC3)nc(O[C@H]3CC[C@@H](NC(=O)c4ncccn4)CC3)c2c1 [Compound 177, N-((1s,4s)-4-((3-(methylsulfonamido)-7-morpholino-1,6-naphthyridin-5-yl)oxy)cyclohexyl)pyrimidine-2-carboxamide] | G (% remaining = 50-75%) | < 116 µL/min/mg | 0.5 to 1 nM | 1000 to 10000 nM |  | 1000 to 10000 nM |  |  | 1000 to 10000 nM |  |  |  |  |  |  |  |  | G (% remaining = 50-75%) | < 116 µL/min/mg |
| O=C(N[C@H]1CC[C@@H](Oc2nc(N3CCOCC3)cc3ncccc23)CC1)c1ccc(F)cc1 [Compound 111, 4-Fluoro-N-((1s,4s)-4-((7-morpholino-1,6-naphthyridin-5-yl)oxy)cyclohexyl)benzamide] | E (% remaining = 0-25%) | > 116 µL/min/mg | < 0.5 nM | 1000 to 10000 nM | 1000 to 10000 nM | 1000 to 10000 nM | 500 to 1000 nM | 500 to 1000 nM | < 100 nM |  |  |  |  |  |  |  |  |  |  |
| c1cnc2cc(N3CCOCC3)nc(O[C@H]3CC[C@@H](Nc4cnccn4)CC3)c2c1 [Compound 23, N-((1s,4s)-4-((7-Morpholino-1,6-naphthyridin-5-yl)oxy)cyclohexyl)pyrazin-2-amine] | E (% remaining = 0-25%) | > 116 µL/min/mg | < 0.5 nM | 10 to 500 nM | 10 to 500 nM | 10 to 500 nM | 10 to 500 nM | 10 to 500 nM | 100 to 1000 nM |  |  |  |  |  |  |  |  |  |  |
